Test results: US8293768B2, “Organic compounds” (Novartis AG, priority 2006, dated 2012)

Compared with `Cc1nc(N2CCN(Cc3ccc(F)cc3)C2=O)sc1C(=O)NCc1ccncc1` [Example 32.23, 2-(3-(4-fluorobenzyl)-2-oxoimidazolidin-1-yl)-4-methyl-N-(pyridin-4-ylmethyl)thiazole-5-carboxamide], `Cc1nc(N2CCN(Cc3ccc(F)cc3)C2=O)sc1C(=O)NCc1cnn(C)c1` [Example 32.13, 2-(3-(4-fluorobenzyl)-2-oxoimidazolidin-1-yl)-4-methyl-N-((1-methyl-1H-pyrazol-4-yl)methyl)thiazole-5-carboxamide] is higher in melting point: 146 to 149 °C for the first, 173 to 175 °C for the second.

First: Cc1nc(N2CCN(Cc3ccc(F)cc3)C2=O)sc1C(N)=O [Example 32.18, 2-(3-(4-fluorobenzyl)-2-oxoimidazolidin-1-yl)-4-methylthiazole-5-carboxamide]
Second: Cc1cnc(CNC(=O)c2sc(N3CCN(Cc4ccc(F)cc4)C3=O)nc2C)cn1 [Example 32.10, 2-(3-(4-fluorobenzyl)-2-oxoimidazolidin-1-yl)-4-methyl-N-((5-methylpyrazin-2-yl)methyl)thiazole-5-carboxamide]
The melting point of the first is higher: 201 to 203 °C for the first, 191 to 193 °C for the second.

First: Cc1nc(-n2cnn(CCOc3ccc(F)cc3)c2=O)sc1C(=O)NCc1cccnc1 [Example 21.2, 2-(1-(2-(4-fluorophenoxy)ethyl)-5-oxo-1H-1,2,4-triazol-4(5H)-yl)-4-methyl-N-(pyridin-3-ylmethyl)thiazole-5-carboxamide]
Second: Cc1nc(N2CCN(Cc3ccccc3)C2=O)sc1C(=O)NCc1ccccc1F [Example 9.1, 2-(3-benzyl-2-oxoimidazolidin-1-yl)-N-(2-fluorobenzyl)-4-methylthiazole-5-carboxamide]
The melting point of the first is lower: 154 to 155 °C for the first, 167 to 168 °C for the second.

First: CCOC(=O)c1sc(N2CCNC2=O)nc1C [Example 3, ethyl 4-methyl-2-(2-oxoimidazolidin-1-yl)thiazole-5-carboxylate]
Second: Cc1nc(N2CCN(c3ccccc3)C2=O)sc1C(=O)O [Example 6, 4-methyl-2-(2-oxo-3-phenylimidazolidin-1-yl)thiazole-5-carboxylic acid]
The melting point of the first is lower: 197 to 199 °C for the first, 286 to 289 °C for the second.

First: Cc1nc(N2CCN(Cc3ccccc3)C2=O)sc1C(=O)NCc1cc(F)cc(F)c1 [Example 9.3, 2-(3-benzyl-2-oxoimidazolidin-1-yl)-N-(3,5-difluorobenzyl)-4-methylthiazole-5-carboxamide]
Second: Cc1nc(N2CCN(Cc3cccc(C(=O)O)c3)C2=O)sc1C(=O)NCc1ccccc1 [Example 25, 3-((3-(5-(benzylcarbamoyl)-4-methylthiazol-2-yl)-2-oxoimidazolidin-1-yl)methyl)benzoic acid]
The melting point of the first is higher: 208 to 209 °C for the first, 120 to 123 °C for the second.

First: Cc1nc(N2CCN(Cc3ccccc3)/C2=N\C#N)sc1C(=O)NCc1ccccc1 [Example 27, N-benzyl-2-(3-benzyl-2-(cyanoimino)imidazolidin-1-yl)-4-methylthiazole-5-carboxamide]
Second: Cc1cc(N2CCN(CC(=O)c3ccccc3)C2=O)sc1C(=O)NCc1cccnc1 [Example 55.1, 3-methyl-5-(2-oxo-3-(2-oxo-2-phenylethyl)imidazolidin-1-yl)-N-(pyridin-3-ylmethyl)thiophene-2-carboxamide]
The melting point of the first is higher: 226 to 228 °C for the first, 174 to 176 °C for the second.

Compared with `Cc1nc(N2CCN(CC3CCCC3)C2=O)sc1C(=O)NCc1cccnc1` [Example 9.38, 2-(3-(cyclopentylmethyl)-2-oxoimidazolidin-1-yl)-4-methyl-N-(pyridin-3-ylmethyl)thiazole-5-carboxamide], `Cc1nc(N2CCN(CC3CC3)C2=O)sc1C(=O)NCc1ccccn1` [Example 32.24, 2-(3-(cyclopropylmethyl)-2-oxoimidazolidin-1-yl)-4-methyl-N-(pyridin-2-ylmethyl)thiazole-5-carboxamide] is higher in melting point: 142 to 143 °C for the first, 148 to 151 °C for the second.

For `Cc1cc(N2CCN(Cc3ccc(F)cc3)C2=O)sc1C(=O)NCc1cccs1` [Example 55.5, 5-(3-(4-fluorobenzyl)-2-oxoimidazolidin-1-yl)-3-methyl-N-(thiophen-2-ylmethyl)thiophene-2-carboxamide], the melting point was 128 to 131 °C.
